Key:
thioredoxin (TRX) = target: T1, thioredoxin (TRX) (Homo sapiens, UniProt P10599); test: Insulin turbidity assay, thioredoxin; assay type: biochemical; details: for Effect on enzyme activity of thioredoxin: 300 μM, highest concentration tested
T1 sequence (P10599 1-105): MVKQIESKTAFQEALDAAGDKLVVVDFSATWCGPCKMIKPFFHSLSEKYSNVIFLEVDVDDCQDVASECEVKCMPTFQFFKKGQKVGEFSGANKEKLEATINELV
Procedure: (§1) Initial compound library screening was performed in an insulin turbidity assay adapted for high‐throughput screening (Holmgren, [1979]; Smith et al., [2004]). The reduction of the disulphide bond in insulin by a thiol isomerase results in the separation of the A and B chains and precipitation, which is measured by spectrophotometry at a wavelength of 650 nm. Using Corning 3891 well plates (with a final volume of 10 μl), a final concentration of 10 μg·ml^−1 of ERp57, 125‐μM insulin and 2‐mM EDTA in potassium phosphate buffer (100 mM) was added to each experimental well. Bacitracin (3 mM) was added to select wells as a positive control and vehicle plates served as a negative control. Experimental compounds were pin transferred to the wells at a final concentration of 30 μM and plates shaken. After incubation for 10 min, 0.3‐mM DTT was added to propagate enzyme activity. Following reaction for 1 hr at 37°C, plates were read using a PerkinElmer Envision plate reader (PerkinElmer, Waltham, MA). All compounds were tested in duplicate at the ICCB‐Longwood Screening Facility at Harvard Medical School.
(§2) Lead compounds were diluted in a 6‐point dose curve (concentrations depending on the observed effects in the initial screen) and insulin turbidity was measured kinetically each minute for 75 min using a Spectramax M3 microplate reader (Molecular Devices, Sunnyvale, CA). Specificity assay also utilised the insulin turbidity assay to determine specificity of inhibition; ERp57 was replaced with PDI (10 μg·ml^−1), ERp5 (30 μg·ml^−1), ERp72 (10 μg·ml^−1) or thioredoxin (10 μg·ml^−1), to determine the ability of lead compounds to inhibit these enzymes.
(§3) A total of 3,641 compounds were screened for inhibitory effects on the redox activity of ERp5, protein disulphide isomerase (PDI), ERp57, ERp72 and thioredoxin (TRX), all assayed at 10 μg·ml^−1 except ERp5 which was assayed at 30 μg·ml^−1. ZFL was selected for further investigation. […] (a) Enzyme assays performed in the absence of enzyme with drug only.

PDI = PDI (Homo sapiens, UniProt P07237); test: Insulin turbidity assay, PDI; assay type: biochemical; details: for Effect on enzyme activity of PDI: 300 μM, highest concentration tested
Procedure: as §1, §2, §3

ERp57 = target: T2, ERp57 (Homo sapiens, UniProt P30101); test: Insulin turbidity assay, ERp57; assay type: biochemical; details: for Effect on enzyme activity of ERp57: 300 μM, highest concentration tested
T2 sequence (P30101 25-505): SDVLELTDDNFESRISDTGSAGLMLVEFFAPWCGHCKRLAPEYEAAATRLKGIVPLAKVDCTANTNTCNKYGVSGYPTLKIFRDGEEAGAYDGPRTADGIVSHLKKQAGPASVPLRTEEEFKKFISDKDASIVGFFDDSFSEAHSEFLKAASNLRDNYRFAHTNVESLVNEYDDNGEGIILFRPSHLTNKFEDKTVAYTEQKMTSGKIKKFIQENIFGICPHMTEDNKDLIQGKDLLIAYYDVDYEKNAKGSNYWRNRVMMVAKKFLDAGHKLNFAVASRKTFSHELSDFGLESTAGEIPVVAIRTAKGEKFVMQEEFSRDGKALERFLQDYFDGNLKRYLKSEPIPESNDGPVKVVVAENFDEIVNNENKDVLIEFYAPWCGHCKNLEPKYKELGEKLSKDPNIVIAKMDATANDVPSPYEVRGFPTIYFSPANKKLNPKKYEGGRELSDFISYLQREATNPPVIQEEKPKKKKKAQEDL
Procedure: as §1, §2, §3

HEK293T cells [1] = test: Cell migration scratch assay, HEK293T; assay type: cell-based, human; details: 20 μM, 40 hr
Procedure: (§4) MDA‐MB‐231 (ATCC Cat# HTB‐26, RRID:CVCL_0062) or HEK293T (ATCC Cat# CRL‐3216, RRID:CVCL_0063) were seeded into wells of a 12‐well plate (fibronectin coated, 10 μg·ml^−1) and grown to confluence in DMEM supplemented with 10% (v/v) FBS and 1% (v/v) penicillin–streptomycin. Following aspiration of media, a vertical scratch was performed to bisect the well and detached cells were removed by PBS washes. […] Images were analysed using Zeiss Axiovision software, and closure areas calculated using Fiji ImageJ. At 37/40 hr post‐scratch, cells were fixed in 4% (v/v) paraformaldehyde for 20 min and permeabilised with 0.2% (v/v) Triton X‐100 for 10 min. Cells were stained with phalloidin‐568 (dilution of 1:250, in PBS) for 1 hr and following washes, counterstained with DAPI (1:1,000) for 20 min. Cells were washed in PBS and mounted using Vectashield H‐1000.

ERp5 = target: T3, ERp5 (Homo sapiens, UniProt Q15084); test: Insulin turbidity assay, ERp5; assay type: biochemical; details: ERp5 30 μg·ml^−1, 650 nm, 37°C
T3 sequence (Q15084 20-440): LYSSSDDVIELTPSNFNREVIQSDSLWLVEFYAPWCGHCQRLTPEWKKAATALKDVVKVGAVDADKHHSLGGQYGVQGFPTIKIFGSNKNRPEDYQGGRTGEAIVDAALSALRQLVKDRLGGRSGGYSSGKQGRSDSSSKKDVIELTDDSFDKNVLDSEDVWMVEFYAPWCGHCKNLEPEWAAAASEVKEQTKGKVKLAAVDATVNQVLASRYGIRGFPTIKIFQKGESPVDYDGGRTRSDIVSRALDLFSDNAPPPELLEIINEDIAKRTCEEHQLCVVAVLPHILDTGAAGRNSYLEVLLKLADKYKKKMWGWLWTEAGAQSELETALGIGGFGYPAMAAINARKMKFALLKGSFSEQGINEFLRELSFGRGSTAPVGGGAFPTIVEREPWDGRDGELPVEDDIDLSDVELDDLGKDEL
Procedure: as §1
(§5) Lead compounds were diluted in a 6‐point dose curve (concentrations depending on the observed effects in the initial screen) and insulin turbidity was measured kinetically each minute for 75 min using a Spectramax M3 microplate reader (Molecular Devices, Sunnyvale, CA). […]

thrombus formation = test: Laser injury arterial thrombus formation, cremaster muscle arterioles, intravital microscopy; assay type: in vivo, mouse; details: 20 μM circulating concentration, i.v., male C57BL/6J mice, n = 12 thrombi
Procedure: (§6) Male C57BL/6J mice (RRID:IMSR_JAX:000664 bred in house, at age 4–5 weeks with a weight range of 19–25 g) were anaesthetised by intraperitoneal injection of ketamine (125 mg·kg^−1), xylazine (12.5 mg·kg^−1) and atropine (0.25 mg·kg^−1). Platelets were labelled by intravenous infusion of DyLight 649‐conjugated anti‐GPIb platelet labelling antibody (0.2 μg·g^−1 body weight). […] Thrombi were observed using an Olympus BX microscope (Olympus, Essex, UK) and a Hamamatsu (Hamamatsu Photonics, Hertfordshire, UK) CCD camera and data analysed using Slidebook Software version 5.0 (Intelligent Imaging Innovations, Denver, USA) (Falati et al., [2006]; Holbrook et al., [2018]; Holbrook et al., [2012]). Mice were killed using Schedule 1 approved methods at the end of the experiment. […] Time to bleeding cessation was recorded. […] Animal experiments were approved by the University of Reading Local Ethical Review Panel and authorised by the UK Home Office. […]
(§7) Following laser injury, images were recorded for 5 min. […] Graphs represent mean ± SEM, n = 10 per treatment; data were analysed by Student's t‐test, *P < 0.05

[2] = tested on: HEK293T cell-surface free thiols; test: Cell-surface free thiol labelling with MPB, HEK293T; assay type: cell-based, human; details: 20 μM, vs vehicle
Procedure: (§8) MDA‐MB‐231 or HEK293T cells were cultured and treated as described before. Four hours post‐treatment, cells were washed with PBS, and free thiols labelled by incubation with MPB (100 μM) for 20 min. Free label was removed by multiple PBS washes, and cells were lysed in reducing sample treatment buffer for SDS‐PAGE analysis. Thiol labelling was detected using streptavidin‐HRP conjugate (1:10,000 dilution in 5% [w/v] BSA/TBS‐T), and chemiluminescence captured following the addition of ECL substrate.

MDA-MB-231 cells [3] = test: 3-day growth inhibition (proliferation) assay, MDA-MB-231; assay type: cell-based, human; details: 72 hr
Procedure: (§9) MDA‐MB‐231 or HEK293T cells were seeded at a density of 2.5 × 10^5 cells per well in a six‐well cell culture plate and grown for 24 hr. […] Following drug treatment, wells were washed and cells manually counted by haemocytometer or automatically using a Coulter counter (Beckman Coulter, CA, USA). Cell growth inhibition was calculated by comparing the counts of drug treated cells with untreated (control) cells as described previously (Kennedy et al., [2007]).

[4] = parameters: method as in Fischer et al., [2000]; details: oral 20 mg twice daily; ref Fischer et al., [2000]; cited from earlier work
[5] = tested on: MDA-MB-231 cell-surface free thiols; test: Cell-surface free thiol labelling with MPB, MDA-MB-231; assay type: cell-based, human; details: 20 μM, vs vehicle
Procedure: as §8

[6] = tested on: haemostasis (bleeding time); test: Tail bleeding assay; assay type: in vivo, mouse; details: 20 μM circulating concentration, femoral vein, 5 min before tail biopsy, n = 10; vehicle 225 s ± 28 s; not significant
Procedure: as §6, §7

ERp72 = target: T4, ERp72 (Homo sapiens, UniProt P13667); test: Insulin turbidity assay, ERp72; assay type: biochemical; details: ERp72 10 μg·ml^−1, 650 nm, 37°C
T4 sequence (P13667 21-645): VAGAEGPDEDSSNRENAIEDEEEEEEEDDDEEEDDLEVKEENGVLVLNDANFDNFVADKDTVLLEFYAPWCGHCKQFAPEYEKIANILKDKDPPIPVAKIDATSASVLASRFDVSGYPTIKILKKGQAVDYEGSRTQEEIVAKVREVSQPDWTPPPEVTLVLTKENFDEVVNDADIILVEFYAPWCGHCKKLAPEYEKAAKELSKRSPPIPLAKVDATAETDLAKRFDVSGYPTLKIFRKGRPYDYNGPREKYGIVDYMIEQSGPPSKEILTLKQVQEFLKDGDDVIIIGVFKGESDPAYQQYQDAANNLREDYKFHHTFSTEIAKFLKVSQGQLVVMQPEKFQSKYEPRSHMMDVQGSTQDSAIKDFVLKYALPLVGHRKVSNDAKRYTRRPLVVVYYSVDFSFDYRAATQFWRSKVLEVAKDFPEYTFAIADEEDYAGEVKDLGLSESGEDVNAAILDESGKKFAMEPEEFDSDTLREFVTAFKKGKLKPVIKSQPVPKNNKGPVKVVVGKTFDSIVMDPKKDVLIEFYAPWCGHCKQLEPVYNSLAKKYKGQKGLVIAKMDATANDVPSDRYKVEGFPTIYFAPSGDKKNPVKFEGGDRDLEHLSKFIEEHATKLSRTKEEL
Procedure: as §1, §5

HEK293T cells [7] = test: Proliferation assay, HEK293T; assay type: cell-based, human; details: 1–30 μM, 72 hr
Procedure: as §9

MDA-MB-231 cells [8] = test: Cell migration scratch assay, MDA-MB-231; assay type: cell-based, human; details: 20 μM, 37 hr
Procedure: as §4

Sequence of PDI (P07237 18-508, species assumed): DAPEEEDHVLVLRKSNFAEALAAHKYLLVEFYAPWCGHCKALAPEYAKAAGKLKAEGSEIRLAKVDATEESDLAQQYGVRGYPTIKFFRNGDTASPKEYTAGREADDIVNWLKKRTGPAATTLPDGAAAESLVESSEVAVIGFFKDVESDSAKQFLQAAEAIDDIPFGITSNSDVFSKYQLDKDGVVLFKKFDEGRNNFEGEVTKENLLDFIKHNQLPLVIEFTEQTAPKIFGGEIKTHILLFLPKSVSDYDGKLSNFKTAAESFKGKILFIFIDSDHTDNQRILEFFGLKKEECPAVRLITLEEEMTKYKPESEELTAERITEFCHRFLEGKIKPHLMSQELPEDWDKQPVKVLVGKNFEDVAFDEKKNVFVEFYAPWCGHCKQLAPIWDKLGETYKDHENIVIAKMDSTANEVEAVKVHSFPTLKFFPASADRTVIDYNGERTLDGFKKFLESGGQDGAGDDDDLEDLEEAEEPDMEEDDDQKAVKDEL

CC(C)(O)c1ccccc1CC[C@@H](SCC1(CC(=O)O)CC1)c1cccc(/C=C/c2ccc3ccc(Cl)cc3n2)c1 [montelukast]
Effect on enzyme activity of thioredoxin (thioredoxin (TRX)): almost entirely ablate
Effect on enzyme activity of PDI (PDI): almost entirely ablate
Effect on enzyme activity of ERp57 (ERp57): almost entirely ablate

COc1cc(C(=O)NS(=O)(=O)c2ccccc2C)ccc1Cc1cn(C)c2ccc(NC(=O)OC3CCCC3)cc12 [zafirlukast]
Closure area at endpoint (HEK293T cells [1]; vehicle 80,686 [±15,705]): 1,475,154 [±81,061]
Scratch area coverage (migration) at endpoint (HEK293T cells [1]; vehicle over 96%): 32%
Inhibition of ERp5 activity, concentration dependence (ERp5): concentration dependently inhibits
Effect on enzyme activity of thioredoxin (thioredoxin (TRX)): almost entirely ablate
Inhibition of thioredoxin (TRX) activity, concentration dependence (thioredoxin (TRX); TRX 10 μg·ml^−1, 650 nm, 37°C): concentration dependently inhibits
Thrombus size (maximum fluorescence intensity) (thrombus formation): significantly impaired
Effect on enzyme activity of PDI (PDI): almost entirely ablate
Inhibition of PDI activity, concentration dependence (PDI; PDI 10 μg·ml^−1, 650 nm, 37°C): concentration dependently inhibits
Decrease of surface MPB labelling [2]: 47%
Effect on cell proliferation (MDA-MB-231 cells [3]; 20 μM): minimal effect
Reduction of proliferation (MDA-MB-231 cells [3]; 30 μM): around 20%
Peak plasma concentration (cMax) [4]: 697 ng/mL
Peak plasma concentration, equivalent [4]: 1.2 µM
Time of peak plasma concentration [4]: 3 h
Reduction of surface free thiol (MPB) labelling [5]: 42%
Bleeding time [6]: 243 s
Effect on enzyme activity of ERp57 (ERp57): almost entirely ablate
Inhibition of ERp57 activity, concentration dependence (ERp57; ERp57 10 μg·ml^−1, 650 nm, 37°C): concentration dependently inhibits
Inhibition of ERp72 activity, concentration dependence (ERp72): concentration dependently inhibits
Impairment of cell proliferation (HEK293T cells [7]): not detected
Closure area at endpoint (MDA-MB-231 cells [8]; vehicle 62,163 ± 23,552): 243,707 ± 51,057
Scratch area covered at endpoint (MDA-MB-231 cells [8]; vehicle over 86%): 56%
